Laboratory results as given in patent US9521846B2, “Template-fixed peptidomimetics with antimicrobial activity” (priority 2006, dated 2016).
≈ marks a conversion by molar mass, not a printed value. Non-standard residues stand in square brackets, D forms with d. Residues, ends and D or L forms follow the SMILES beside them. Dab = NCC[C@H](N)C(=O)O

Legend:
[1] = test system: human red blood cells (hRBC); test: Hemolysis; format: cell-based; conditions: 100
[2] = test system: Pseudomonas aeruginosa P1021903; format: cell-based; conditions: P1021903
In short: (§1)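 Bacteria were diluted in MH broth containing 0.02% BSA to roughly 10^6 CFU/ml, checked against a 0.5 McFarland standard. This inoculum was then added in equal volume to serially two-fold diluted peptide, following the NCCLS microdilution protocol with slight modifications.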

[3] = test system: Pseudomonas aeruginosa P8191900; format: cell-based; conditions: P8191900
In short: as §1

[4] = test system: Pseudomonas aeruginosa IMP 1 Livermore 3140; format: cell-based; conditions: IMP 1 Livermore 3140
In short: as §1

[5] = test system: Pseudomonas aeruginosa P1021913; format: cell-based; conditions: P1021913
In short: as §1

in vivo = test: in vivo; set-up: species or system CD-1 mice
Method: Pharmacokinetic Study after Single Intravenous, Subcutaneous and Intraperitoneal Administration in Mice Pharmacokinetic study after single intravenous (i.v.) and subcutaneous (s.c.) administration was performed for the compound of Example 1 (“Ex. 1”). CD-1 mice (20-25 g) were used in the study. Physiological saline was used a vehicle. The volume was 2 ml/kg i.v., and 5 ml/kg s.c. and the peptide Ex. 1 was injected to give a final intravenous dose of 1 mg/kg, and a subcutaneous dose of 5 mg/kg. […] Plasma was removed from pelleted cells upon centrifugation and frozen at −80° C. prior to HPLC-MS analysis. “Blank” mouse plasma from untreated animals was used. Aliquots of plasma of 0.2 ml each were spiked with 50 ng of propranolol (Internal Standard, IS), (sample preparation by solid phase extraction on OASIS® BIB cartridges (Waters)) and with known amounts of Ex. 1 in order to obtain 9 plasma calibration samples in the range 10-5000 nM. […] The plate containing eluates was introduced into the concentrator system and taken to dryness. […] Samples coming from animal treatments were pooled in order to obtain an appropriate volume for the extraction. If the total volume obtained was less than 0.2 ml the appropriate amount of “blank” mouse plasma was added in order to keep the matrix identical to the calibration curve. Samples were than spiked with IS and processed as described for the calibration curve. PK analysis was performed on pooled data (generally n=2 or 3) using the software Win Nonlin (Pharsight). The area under the curve AUC was calculated by the linear trapezoidal rule. Elimination half-life was calculated by the linear regression on at least three data points during the elimination phase. The time intervals selected for the half-life determinations were evaluated by the correlation coefficient (r^2), which should be at least above 0.85 and most optimally above 0.96. In case of i.v. administration the initial concentration at tzero was determined by extrapolation of the curve through the first two time points. Finally bioavailability after […]. administration was calculated from the normalised AUCinf_D_obs ration after s.c. versus i.v. administration.

[6] = Plasma stability, human plasma; format: in vitro ADME

Q: Which “Average MIC” value (P. aeruginosa) does the source give for `CC[C@H](C)[C@@H]1NC(=O)[C@H](Cc2c[nH]c3ccccc23)NC(=O)[C@H]([C@@H](C)O)NC(=O)[C@@H]2CCCN2C(=O)[C@H]2CCCN2C(=O)[C@H](CCN)NC(=O)[C@H](C)NC(=O)[C@H](CCN)NC(=O)[C@H](CCN)NC(=O)[C@H](Cc2c[nH]c3ccccc23)NC(=O)[C@H](CCN)NC(=O)[C@H](CCN)NC(=O)[C@H](CCCCN)NC(=O)[C@H](CCN)NC1=O` [Example 1] (cyclo(TWI[Dab]K[Dab][Dab]W[Dab][Dab]A[Dab][dP]P)) here?
A: 0.10 µg/mL

Q: What about the “Hemolysis at 100 μg/ml” value [1] of the same molecule?
A: 0.5%

Q: And the “MIC P. aeruginosa P1021903” value [2]?
A: 0.07 µg/mL (≈ 0.0443 µM)

Q: And the “MIC P. aeruginosa P8191900” value [3]?
A: 0.07 µg/mL (≈ 0.0443 µM)

Q: What about the “MIC P. aeruginosa IMP1 Livermore 3140” value [4] of the same molecule?
A: 0.18 µg/mL (≈ 0.114 µM)

Q: What about the “MIC P. aeruginosa P1021913” value [5] of the same molecule?
A: 0.13 µg/mL (≈ 0.0822 µM)

Q: What about the Vd (in vivo; CD-1, mouse, iv, 1 mg/kg) of the same molecule?
A: 1.14 L/kg

Q: What about the clearance (in vivo; CD-1, mouse, iv, 1 mg/kg) of the same molecule?
A: 25.7 mL/min/kg

Q: And the level at 0.25 h (in vivo; CD-1, mouse, iv, 1 mg/kg)?
A: 575 ng/mL

Q: What about the level at 1 h (in vivo; CD-1, mouse, iv, 1 mg/kg) of the same molecule?
A: 177 ng/mL

Q: What about the level at 3 h (in vivo; CD-1, mouse, iv, 1 mg/kg) of the same molecule?
A: 10.6 ng/mL

Q: What about the level at 8 h (in vivo; CD-1, mouse, sc, 5 mg/kg) of the same molecule?
A: 7.3 ng/mL

Q: And the bioavailability (in vivo; mouse, 5 mg/kg)?
A: 118.2%

Q: And the bioavailability (in vivo; mouse, 5 mg/kg, Bioavailability)?
A: 118%

Q: What about the AUC(0-inf) (in vivo; mouse, iv, 1 mg/kg) of the same molecule?
A: 680 ng·h/mL

Q: And the C0 (in vivo; mouse, iv, 1 mg/kg)?
A: 2170 ng/mL

Q: And the Cmax_D (in vivo; mouse, iv, 1 mg/kg)?
A: 1268.0 kg·ng/mL/mg

Q: And the Tmax (in vivo; mouse, iv, 1 mg/kg)?
A: 4.8 min

Q: And the half-life (in vivo; mouse, iv, 1 mg/kg)?
A: 31.8 min

Q: And the bioavailability (in vivo; mouse, iv, 1 mg/kg, Bioavailability)?
A: 100%

Q: And the Cmax (in vivo; mouse, iv, 1 mg/kg, Cmax)?
A: 1270 ng/mL

Q: What about the AUC(0-inf) (in vivo; mouse, sc, 5 mg/kg) of the same molecule?
A: 4020 ng·h/mL

Q: And the Cl_obs (in vivo; mouse, sc, 5 mg/kg)?
A: 20.83 mL/min/kg

Q: What about the Cmax (in vivo; mouse, sc, 5 mg/kg) of the same molecule?
A: 2333.3 ng/mL

Q: And the Cmax_D (in vivo; mouse, sc, 5 mg/kg)?
A: 466.7 kg·ng/mL/mg

Q: What about the Tmax (in vivo; mouse, sc, 5 mg/kg) of the same molecule?
A: 34.8 min

Q: What about the Vz_obs (in vivo; mouse, sc, 5 mg/kg) of the same molecule?
A: 1.7056 L/kg

Q: What about the half-life (in vivo; mouse, sc, 5 mg/kg) of the same molecule?
A: 57 min

Q: And the Cmax (in vivo; mouse, sc, 5 mg/kg, Cmax)?
A: 2330 ng/mL

Q: What about the “Stability human Plasma t1/2” value [6] of the same molecule?
A: 300 min
